Results on seven compounds are retold here after publication PMC12057046, “Elucidation of short linear motif-based interactions of the MIT and rhodanese domains of the ubiquitin-specific protease 8” (Biology Direct, 2025).

The target in one assay is T1, USP8 Rhod domain (Homo sapiens, UniProt P40818).
T1 construct: USP8 Rhod (174–317) (UniProt: P40818); GST (cleaved yes); made in house; host or cells: Escherichia coli BL21-Gold (DE3)
T1 sequence (P40818 174-317): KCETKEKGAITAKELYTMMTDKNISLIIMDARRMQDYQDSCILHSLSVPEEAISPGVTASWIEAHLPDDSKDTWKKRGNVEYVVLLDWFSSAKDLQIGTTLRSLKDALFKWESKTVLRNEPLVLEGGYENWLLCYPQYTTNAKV
Description: Competitive fluorescence polarization (displacement of FITC-TET3_1705 − 1720). Particulars: FP displacement, 1.5 µM protein, 10 nM FITC-labeled peptide, 50 mM sodium phosphate pH 7.4, 1 mM DTT; mean ± SD, N = 3 technical triplicates (Fig. 3 legend). The format is binding. The protocol: We next evaluated the peptide binding of the Rhod domain by ProP-PD selections. […] (February 2025).
The peptides were obtained from GeneCust (France) with > 95% purity. Measurement of the direct binding with a constant concentration of FITC-labeled peptides was performed by increasing concentration of the protein. The KD value from the direct binding experiment was obtained by fitting against a quadratic equation (Eq. 4) where “pept” indicates the fixed probe peptide concentrations, X indicates the protein concentration, the constant A is the signal amplitude divided by probe peptide concentration, and B is the plateau value. Eq. 4: [drawing 9]
Displacement experiments were carried out by increasing concentration of the unlabeled peptides. The data were fitted with a sigmoidal dose-response equation. The results were analysed with GraphPad Prism version 9.2.0.
A general note: In fluorescence polarisation assays a small probe gives low polarisation when free and higher when bound to something large.

Assay [1] concerns USP8 MIT domain. Conditions: 187-ELSQRLARLR-196; ref [17], [38]; cited from earlier work. From the text:
To further elucidate the peptide binding determinants of the interactions with USP8 MIT domain we performed a deep mutational scanning (DMS) analysis of two model peptides: one peptide from melanophilin (MLPH481 − 496: […]) which served as a representative of the MIM1-like motif and the EFCAB12 peptide (EFCAB12_1 − 16: […]), which shares some sequence similarity with the DBP116 − 131 peptide. We designed a library of peptides in which each position of the two parental peptides were mutated to all other amino acids (except cysteine) following a classic saturation mutag ...

Assay [2] relates to USP8 MIT domain. In words: SPOT array alanine scanning, USP8 MIT domain. It is filed as binding, human. Particulars: cellulose-bound peptides, GST-tagged MIT 100 µM, 5% skim milk TBST, overnight 4 °C, anti-GST HRP chemiluminescence; normalized to wild type. The protocol:
SPOT array alanine scanning of peptides was designed, and cellulose-bound peptides were synthesized using Fluorenylmethyloxycarbonyl (Fmoc) solid phase synthesis with a MultiPep synthesizer (INTAVIS Peptide Services, Tübingen, Germany). The membranes of predicted peptides were purchased by JPT Peptide Technologies (Berlin, Germany). The membranes were incubated with blocking buffer containing 5% skim milk in TBST (50 mM Tris, 150 mM NaCl pH 7.5, 0.05% Tween-20) for two hours at room temperature. The blocked membranes were incubated with GST-tagged proteins (100 µM for MIT domain and 150 µM for the Rhodanese domain) in blocking buffer overnight at 4 °C. After rinsed with TBST the membranes were incubated with HRP-conjugated anti-GST antibody (Cytiva, RPN1236; 1:3000 dilution) in blocking buffer for 1 h at 4 °C and subsequently rinsed with TBST to remove any excess antibody. The ECL reagent (Clarity Max Western ECL substrate, 1705062, BioRad) was used for chemiluminescence read-out with the ChemiDoc Imaging system (BioRad). The images were analysed with Fiji (ImageJ2 version 2.9.0). SLiMSearch4 was used to design the peptide arrays with known interactors predicted to contain the motifs. The background signal intensity was subtracted, and the corrected signal intensities were normalized to the positive control and presented as percentage.

Assay [3] concerns USP8 MIT domain. In words: SPOT array of predicted peptides from known interactors, USP8 MIT domain. The format is binding, human. Conditions: for Percentage (%) normalized to highest intensity and corrected for background: SPOT array, GST-tagged MIT 100 µM, overnight 4 °C, chemiluminescence, highest intensity = DNAJB6; for Percentage (%): Supplementary Fig. 4B, normalized to the highest intensity and corrected for background. From the text:
To further assess the SLiM-based interactions of the USP8 MIT domain, we designed a peptide array tiling 24 potential binding sites in previously reported USP8 interactors. We used SLiMSearch to search for peptides that contain shorter or longer matches to the motif (Supplementary Table S4A). […] The DNAJB6_118 - 130 peptide was predicted as a binder based on a partial DFx{2,3}R motif. The DNAJB6-USP8 interaction is supported by previous GST-pulldown experiments and colocalization of the two proteins in male mouse germ cells, and the interaction is thought to be of importance to the protein quality control to yield functional spermatozoa. In the case of the CDH1_863 - 877 peptide it was predicted as USP8 MIT ligand based on the presence of an RFxxL motif. The previous support of the CDH1-USP8 interaction is based on proximity labelling mass spectrometry, and our results thus provide evidence for a binary interaction between the two proteins and define a binding site. To confirm that the motifs used to predict the interactions were of importance for binding we designed an alanine scanning peptide SPOT array analysis of the DNAJB6_118 - 130 and the CDH1_863 - 877 peptides. […] In summary, we find that the USP8 MIT domain binds to a MIM1-like motif that can be expressed by [[…]], as well as degenerate variants thereof. […] The membranes of predicted peptides were purchased by JPT Peptide Technologies (Berlin, Germany). The membranes were incubated with blocking buffer containing 5% skim milk in TBST (50 mM Tris, 150 mM NaCl pH 7.5, 0.05% Tween-20) for two hours at room temperature. The blocked membranes were incubated with GST-tagged proteins (100 μM for MIT domain and 150 μM for the Rhodanese domain) in blocking buffer overnight at 4 °C. After rinsed with TBST the membranes were incubated with HRP-conjugated anti-GST antibody (Cytiva, RPN1236; 1:3000 dilution) in blocking buffer for 1 h at 4 °C and subsequently rinsed with TBST to remove any excess antibody. The ECL reagent (Clarity Max Western ECL substrate, 1705062, BioRad) was used for chemiluminescence read-out with the ChemiDoc Imaging system (BioRad). The images were analysed with Fiji (ImageJ2 version 2.9.0). […] used to design the peptide arrays with known interactors predicted to contain the motifs. The background signal intensity was subtracted, and the corrected signal intensities were normalized to the positive control and presented as percentage.

Assay [4] deals with USP8 MIT domain. Description: Proteomic peptide-phage display (ProP-PD) selection against USP8 MIT domain. Set-up: Confidence: scale not given here. It is filed as binding, human. Conditions: for NGS counts (%): ProP-PD, human disorderome library, GST-tagged MIT bait, four rounds of selection, percent of NGS counts associated with each peptide, Fig. 1B; for max_counts: Total NGS counts; for Confidence: calculated based on four metrics: overlapping peptides, replicated peptides, motif match, peptide counts; for Counts: fraction of NGS counts for a selection; for Promiscuity: number of baits selections where the peptide has been observed, calculated on the domain level; for Replicates: number of screens against the bait protein in which the peptide has been found; for Specificity: proportion for the current bait of the total NGS read counts of the peptide for all baits screened with this library. The method in brief: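 GST-tagged USP8 MIT domain, immobilized on plates, used as bait for four rounds of phage selection with a human disorderome peptide library, after pre-clearing on GST at 4 °C. Binding 2 h at 4 °C, at least three replicates. Enriched peptides identified by next-generation sequencing.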

For `CSCC[C@H](NC(=O)CN)C(=O)N[C@@H](CCC(=O)O)C(=O)N[C@@H](CCCNC(=N)N)C(=O)N[C@H](C(=O)N[C@@H](CC(C)C)C(=O)NCC(=O)NCC(=O)N[C@@H](CC(C)C)C(=O)N[C@@H](CO)C(=O)N[C@@H](CO)C(=O)N1CCC[C@H]1C(=O)N[C@@H](CC(C)C)C(=O)N[C@@H](CCCNC(=N)N)C(=O)N[C@@H](CC(C)C)C(=O)N[C@@H](CC(C)C)C(=O)O)C(C)C` [KIAA1614_568 − 583], at USP8 Rhod domain, binding was put at a Kd of 10 ± 2 µM.
Same read-out and setting: under `CSCC[C@H](NC(=O)[C@H](CCCCN)NC(=O)[C@H](C)NC(=O)[C@H](CCC(=O)O)NC(=O)[C@H](Cc1c[nH]c2ccccc12)NC(=O)[C@H](CC(C)C)NC(=O)[C@H](C)NC(=O)[C@H](CC(C)C)NC(=O)CN)C(=O)N[C@@H](CCCCN)C(=O)N[C@@H](CCC(N)=O)C(=O)N[C@@H](CC(C)C)C(=O)N[C@@H](C)C(=O)N[C@@H](CCC(=O)O)C(=O)N[C@@H](CCCNC(=N)N)C(=O)N[C@@H](C)C(=O)O` [TET3_1705 − 1720] stands 33 ± 9 µM.
As for ELSQRLARLR [CHMP1B], in the assay on USP8 MIT domain [1], the “binding to USP8 MIT” value is given as “USP8 MIT binding peptides”.
Take “NEWGNRFKKLADMYG [CDH1_863 − 877, Cadherin-1 peptide]”: in the assay with USP8 MIT domain [2], the “residues important for binding by SPOT array alanine scanning” value (“residues important for binding” for short) was “corroborated the RFxxL motif and revealed a longer stretch is contributing to binding, with an upstream tryptophan being critical for the interaction”. Moreover, in the assay on USP8 MIT domain [3], the “Percentage (%) normalized to highest intensity and corrected for background” value (“Percentage (%) normalized” for short) is 71%; the “Percentage (%)” value is given as 71%.
As for “PEKPHDSLDSRIEMLL [SETD1B492 − 507, Histone-lysine N-methyltransferase SETD1B peptide]”, in the assay with USP8 MIT domain [4], the “NGS counts (%)” value is 1.37%, the max_counts is listed as 70, the Confidence is on record as 3 and the Counts is 0.001866. In the assay on USP8 MIT domain [4], the Promiscuity is given as 1, the Replicates is given as 3 and the Specificity worked out at 1. Moreover, the “residues important for binding” value with USP8 MIT domain [2] was “confirmed the contributions of the motif residues in binding and the aspartic acid in position p2 of the motif”.
Turning to “PFEDFFGNRRGPR [DNAJB6_118 − 130, DnaJ homolog subfamily B member 6 peptide]”, in the assay with USP8 MIT domain [2], the “residues important for binding” value was “confirmed the importance of the aspartic acid and the phenylalanine of the predicted motif (DFx{2,3}R) and showed that the mutations of the flanking residues also reduced binding”. In the assay on USP8 MIT domain [3], the “Percentage (%) normalized” value is reported as 100%; the “Percentage (%)” value is 100%.
YVDLDAFLLEHGLPPS [DBP116 − 131]: in the assay with USP8 MIT domain [4], the “NGS counts (%)” value was 16.16%, the max_counts worked out at 858, the Confidence was 2 and the Counts is 0.06958. In the assay on USP8 MIT domain [4], the Promiscuity is listed as 3, the Replicates amounted to 3 and the Specificity stood at 0.9006. The “residues important for binding” value with USP8 MIT domain [2] is listed as “revealed the importance of an extended DxDxFxxEHG stretch”. Moreover, in the assay with USP8 MIT domain [3], the “Percentage (%) normalized” value was 67%; the “Percentage (%)” value is 67%.

By Kd is commonly meant the free concentration of one partner at which half of the binding sites on the other are occupied at equilibrium, for simple one-to-one binding.
